According to US11331327B2, “Antibacterial use of halogenated salicylanilides” (UNION therapeutics A/S, priority 2014, dated 2022):
≈ marks a conversion by molar mass, not a printed value. Read-outs that look alike come from different tables or passages of the source.

Test system: S. aureus clinical isolates and S. aureus ATCC 29213
Assay: MIC assay according to CLSI criteria, Example 2, S. aureus strains
Assay type: cell-based, Staphylococcus aureus
Settings: Staphylococcus aureus, read-out: MIC
Procedure: Strains were conserved in Luria Bertani (LB) Broth (S. aureus) or Brain Heart Infusion (BHI) (S. pyogenes) supplemented with glycerol 15% (v/v) at −80° C., and reactivated by isolation on LB (S. aureus) or BHI (S. pyogenes) agar plates. Strains were cultivated in Mueller Hinton (MH) Broth-cation adjusted (S. aureus) or BHI (S. pyogenes). All strains were cultivated aerobically (microaerobically for S. pyogenes strains) at 37° C.
Bacterial cultures were stopped in their exponential growth phase and plates were inoculated with the approximate concentration of 5×10^5 cells per well. Plates were incubated at 37° C. for 18 hours (S. aureus) or 24 hours (S. pyogenes).

CC(=O)O[C@H]1C[C@@]2(C)[C@@H](C[C@@H](O)[C@H]3[C@@]4(C)CC[C@@H](O)[C@@H](C)[C@@H]4CC[C@@]32C)/C1=C(\CCC=C(C)C)C(=O)O [Fusidic acid]
MIC (ATCC29213, strain 9-1862936): 0.125 µg/mL (≈ 0.242 µM) | MIC (ATCC29213, strain 9-2625962): 0.25 µg/mL (≈ 0.484 µM) | MIC (ATCC29213, strain 9-2642158): 0.25 µg/mL (≈ 0.484 µM) | MIC (ATCC29213, strain 9-2955245): 0.25 µg/mL (≈ 0.484 µM) | MIC (ATCC29213, strain 9-26422166): 8 µg/mL (≈ 15.5 µM) | MIC (ATCC29213, strain 000040C): 0.25 µg/mL (≈ 0.484 µM) | MIC (ATCC29213, strain 000041C): 0.25 µg/mL (≈ 0.484 µM) | MIC (ATCC29213, strain 000274T): 0.5 µg/mL (≈ 0.968 µM) | MIC (ATCC29213, strain 114660U): 0.25 µg/mL (≈ 0.484 µM) | MIC (ATCC29213, strain 115015T): 0.25 µg/mL (≈ 0.484 µM) | MIC (ATCC29213, strain 115242C): 8 µg/mL (≈ 15.5 µM) | MIC (ATCC29213, strain 115263C): 0.125 µg/mL (≈ 0.242 µM) | MIC (ATCC29213, strain 115268C): 0.25 µg/mL (≈ 0.484 µM) | MIC (ATCC29213, strain 115273C): 0.25 µg/mL (≈ 0.484 µM) | MIC (ATCC29213, strain 115295C): 0.125 µg/mL (≈ 0.242 µM) | MIC (ATCC29213, strain 115303C): 0.25 µg/mL (≈ 0.484 µM) | MIC (ATCC29213, strain 115370U): 0.5 µg/mL (≈ 0.968 µM) | MIC (ATCC29213, strain 115427C): 0.125 µg/mL (≈ 0.242 µM) | MIC (ATCC29213, strain 115445C): 0.25 µg/mL (≈ 0.484 µM) | MIC (ATCC29213, strain 115561C): 0.125 µg/mL (≈ 0.242 µM) | MIC (ATCC29213, strain 115584D): 0.25 µg/mL (≈ 0.484 µM) | MIC (ATCC29213, strain 115628T): 8 µg/mL (≈ 15.5 µM) | MIC (ATCC29213, strain 115690C): 8 µg/mL (≈ 15.5 µM) | MIC (ATCC29213, strain 115691T): 0.25 µg/mL (≈ 0.484 µM) | MIC (ATCC29213, strain 115740E): 0.25 µg/mL (≈ 0.484 µM) | MIC (ATCC29213, strain 115810E): 0.25 µg/mL (≈ 0.484 µM) | MIC (ATCC29213, strain 115903T): 8 µg/mL (≈ 15.5 µM) | MIC (ATCC29213, strain 116122T): 0.125 µg/mL (≈ 0.242 µM) | MIC (ATCC29213, strain ATCC 29213): 0.06 µg/mL (≈ 0.116 µM) | MIC (ATCC29213, strain E5-1029252): 0.25 µg/mL (≈ 0.484 µM) | MIC (ATCC29213, strain E5-1029558): 16 µg/mL (≈ 31 µM) | MIC (ATCC29213, strain E5-1030440): 0.25 µg/mL (≈ 0.484 µM) | MIC (ATCC29213, strain E5-1030469): 0.125 µg/mL (≈ 0.242 µM) | MIC (ATCC29213, strain E5-1030472): 0.25 µg/mL (≈ 0.484 µM) | MIC (ATCC29213, strain E5-1030482): 16 µg/mL (≈ 31 µM) | MIC (ATCC29213, strain E5-1033076 (first line, r202)): 0.25 µg/mL (≈ 0.484 µM) | MIC (ATCC29213, strain E5-1033076 (second line, r203)): 0.25 µg/mL (≈ 0.484 µM) | MIC (ATCC29213, strain E5-1033088): 0.25 µg/mL (≈ 0.484 µM) | MIC (ATCC29213, strain E5-1033091): 0.03 µg/mL (≈ 0.0581 µM) | MIC (ATCC29213, strain E5-1035277): 16 µg/mL (≈ 31 µM) | MIC (ATCC29213, strain E5-1035284): 0.25 µg/mL (≈ 0.484 µM) | MIC (ATCC29213, strain E5-1035775): > 16 µg/mL | MIC (ATCC29213, strain E5-1035779): 0.125 µg/mL (≈ 0.242 µM) | MIC (ATCC29213, strain E5-1037958): 16 µg/mL (≈ 31 µM) | MIC (ATCC29213, strain E5-1037971): 0.25 µg/mL (≈ 0.484 µM) | MIC (ATCC29213, strain E5-1038279): 4 µg/mL (≈ 7.74 µM) | MIC (ATCC29213, strain E5-1038286): 0.25 µg/mL (≈ 0.484 µM) | MIC (ATCC29213, strain E5-1038294): 0.25 µg/mL (≈ 0.484 µM) | MIC (ATCC29213, strain E5-1039684): 16 µg/mL (≈ 31 µM) | MIC (ATCC29213, strain E5-1039697): 0.5 µg/mL (≈ 0.968 µM) | MIC (ATCC29213, strain E5-1041977): 16 µg/mL (≈ 31 µM) | MIC (ATCC29213, strain E5-1041979): 0.25 µg/mL (≈ 0.484 µM) | MIC (ATCC29213, strain E5-1041980): 0.25 µg/mL (≈ 0.484 µM) | MIC (ATCC29213, strain E5-1041987): 16 µg/mL (≈ 31 µM) | MIC (ATCC29213, strain E5-1043184): 16 µg/mL (≈ 31 µM) | MIC (ATCC29213, strain E5-1043668): 1 µg/mL (≈ 1.94 µM) | MIC (ATCC29213, strain E5-1045179): 0.25 µg/mL (≈ 0.484 µM) | MIC (ATCC29213, strain E5-1046019): 0.25 µg/mL (≈ 0.484 µM) | MIC (ATCC29213, strain E5-1046020): 0.25 µg/mL (≈ 0.484 µM) | MIC (ATCC29213, strain E5-1046039): 0.25 µg/mL (≈ 0.484 µM) | MIC (ATCC29213, strain E5-1046070): 0.25 µg/mL (≈ 0.484 µM) | MIC (ATCC29213, strain E5-1046074): 0.125 µg/mL (≈ 0.242 µM) | MIC (ATCC29213, strain E5-1046085): 8 µg/mL (≈ 15.5 µM) | MIC (ATCC29213, strain E5-1046096): 0.5 µg/mL (≈ 0.968 µM) | MIC (ATCC29213, strain E5-1046296): 0.125 µg/mL (≈ 0.242 µM) | MIC (ATCC29213, strain E5-1046297): 0.125 µg/mL (≈ 0.242 µM) | MIC (ATCC29213, strain E5-1046298): 0.125 µg/mL (≈ 0.242 µM) | MIC (ATCC29213, strain E5-1046723): 0.5 µg/mL (≈ 0.968 µM) | MIC (ATCC29213, strain E5-1047585): 0.25 µg/mL (≈ 0.484 µM) | MIC (ATCC29213, strain E5-1047606): 8 µg/mL (≈ 15.5 µM) | MIC (ATCC29213, strain E5-1047924): 0.25 µg/mL (≈ 0.484 µM) | MIC (ATCC29213, strain E5-1048204): 0.25 µg/mL (≈ 0.484 µM) | MIC (ATCC29213, strain E5-1048428): 0.5 µg/mL (≈ 0.968 µM) | MIC (ATCC29213, strain E5-1048654): 0.5 µg/mL (≈ 0.968 µM) | MIC (ATCC29213, strain E5-1048670): 0.5 µg/mL (≈ 0.968 µM) | MIC (ATCC29213, strain EEFIC 01): 4 µg/mL (≈ 7.74 µM) | MIC (ATCC29213, strain EEFIC 02): 4 µg/mL (≈ 7.74 µM) | MIC (ATCC29213, strain K000772): > 16 µg/mL | MIC (ATCC29213, strain K000796): 8 µg/mL (≈ 15.5 µM) | MIC (ATCC29213, strain K000863): 1 µg/mL (≈ 1.94 µM) | MIC (ATCC29213, strain K000864): 0.25 µg/mL (≈ 0.484 µM) | MIC (ATCC29213, strain K000866): 8 µg/mL (≈ 15.5 µM) | MIC (ATCC29213, strain K115498): 0.125 µg/mL (≈ 0.242 µM) | MIC (ATCC29213, strain K115688): 0.125 µg/mL (≈ 0.242 µM) | MIC (ATCC29213, strain K115689): 0.125 µg/mL (≈ 0.242 µM) | MIC (ATCC29213, strain R000019): 0.125 µg/mL (≈ 0.242 µM) | MIC (ATCC29213, strain R000020): 0.125 µg/mL (≈ 0.242 µM) | MIC (ATCC29213, strain R000024): 16 µg/mL (≈ 31 µM) | MIC (ATCC29213, strain U115579): 0.25 µg/mL (≈ 0.484 µM) | MIC (ATCC 29213 / MRSA, strain MRSA 01): 0.125 µg/mL (≈ 0.242 µM) | MIC (ATCC 29213 / MRSA, strain MRSA 02): 0.5 µg/mL (≈ 0.968 µM) | MIC (ATCC 29213 / MRSA, strain MRSA 03): 16 µg/mL (≈ 31 µM) | MIC (ATCC 29213 / MRSA, strain MRSA 04): 0.25 µg/mL (≈ 0.484 µM) | MIC (ATCC 29213 / MRSA, strain MRSA 05): 0.125 µg/mL (≈ 0.242 µM) | MIC (ATCC 29213 / MRSA, strain MRSA 06): 0.125 µg/mL (≈ 0.242 µM) | MIC (ATCC 29213 / MRSA, strain MRSA 07): 0.25 µg/mL (≈ 0.484 µM) | MIC (ATCC 29213 / MRSA, strain MRSA 08): 0.125 µg/mL (≈ 0.242 µM) | MIC (ATCC 29213 / MRSA, strain MRSA 09): 0.25 µg/mL (≈ 0.484 µM) | MIC (ATCC 29213 / MRSA, strain MRSA 10): 1 µg/mL (≈ 1.94 µM) | MIC (ATCC 29213 / MRSA, strain MRSA 11): 1 µg/mL (≈ 1.94 µM) | MIC (ATCC 29213 / MRSA, strain MRSA 12): 4 µg/mL (≈ 7.74 µM) | MIC (ATCC 29213 / MRSA, strain MRSA 13): 4 µg/mL (≈ 7.74 µM) | MIC (ATCC 29213 / MRSA, strain MRSA 14): > 16 µg/mL
